Data set [1] has as its system PC12 cells. The experiment in a line: MDA measurement in glutamate-exposed cells. In kind it is cell-based. Particulars: GLU (10 mM) alone, 24 h. How it is done:
MDA measurement: To prepare the solution, 350 μl of straight cell homogenate, 100 μl of 500 ppm BHT (butylated hydroxytoluene), and 550 μl of 10% TCA (trichloroacetic acid) were combined and boiled for 30 min. The tubes were cooled on ice and centrifuged for 10 min at 2500 rpm. Five hundred (500) μl of the supernatant were removed and 500 μl of TBA (thiobarbituric acid) were added. The tubes were boiled again for 30 min, and then cooled on ice. From this solution, 500 μl were removed, added to 1.0 ml of n-butanol, vortexed, and centrifuged for 5 min at 60 g to facilitate a phase separation. The top layer was then filtered through 0.45 μm filters and injected onto a 5 μm C18 column (250×4.6 mm) on a reverse phase HPLC system. The mobile phase consisted of 69.4% 5 mM sodium phosphate buffer (pH=7.0), 30% acetonitrile, and 0.6% THF (tetrahydrofuran). The excitation wavelength was 515 nm; the emission wavelength was 550 nm (Draper H. H. et al., Free Radic Biol Med., 15(4):353-63, 1993).
Cells were plated and grown for 24 hours, and then they were exposed to glutamate (10 mM) in the presence or absence of NAC amide (750 μM). Twenty-four hours later, the cells were harvested and malondialdehyde levels were measured. Values represent means.+−.SD. Statistically different values of *P<0.002 and **P<0.05 were determined, compared to control. ***P<0.05 compared to glutamate-treated group.

In data set [2] the test system is PC12 cells. The experiment in a line: GSH measurement in cells (NPM/HPLC). In kind it is cell-based. Particulars: GLU (10 mM) alone. The protocol:
Cells were seeded at a density of 80,000 cells/cm^2 on poly-D-lysine coated (0.05 mg/ml) 75 cm^2 flasks (5 ml/flask) for GSH measurement. […] After the incubation period, cells were removed from the cultures and homogenized in serine borate buffer (100 mM Tris-HCl, 10 mM boric acid, 5 mM L-serine, 1 mM DETAPAC, pH 7.4). Twenty (20) μl of the diluted cell homogenate were added to 230 μl of serine borate buffer and 750 μl of NPM (1 mM in acetonitrile). The resulting solutions were incubated at room temperature for 5 min. The reaction was stopped by the addition of 5 μl of 2N HCl. The samples were then filtered through a 0.2 μm Acrodisc filter and injected onto the HPLC system.
[…] Values represent means.+−.SD. Statistically different values of *P<0.05 were determined, compared to control. **P<0.001 compared to glutamate-treated group. ***P<0.05 compared to glutamate-treated group.

The subject of the next data set is mouse. Particulars: subcutaneous injection; cited from earlier work.

Take `N[C@@H](CCC(=O)O)C(=O)O` [GLU, glutamate, reference compound]: the “MDA Levels” value in the data set on PC12 cells [1] was 247 ± 26 nM/100 mg protein. In addition, in the data set on PC12 cells [2], the “GSH Levels” value is 23 ± 4.2 nM/mg protein.

In the case of `CN1CC[C@]23c4c5ccc(O)c4O[C@H]2C(=O)C=C[C@H]3[C@H]1C5` [Morphinone, morphinone], in the data set on mouse, the “toxicity relative to morphine” value was 9 times.

(Values after US10869846B2, “N-acetylcysteine amide (NAC amide) in the treatment of diseases and conditions associated with oxidative stress” (SENTIENT LIFESCIENCES, INC., priority 2005, dated 2020).)
